Results published in ChEMBL document CHEMBL1201862, “PubChem BioAssay data set” (2004).
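All cell lines were grown in 96-well plates and treated with compound for 48 hours. The concentration for 50% growth inhibition is given as GI50.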 Activity calls are given as the source filed them. No stated cut-off is given here; in the data, active = GI50 up to about 1.1 µM and inactive = higher.

Experiments:
Assay in all cases: DTP human tumour cell line panel, 48 h
SN12C = tested on: SN12C
SK-MEL-28 = tested on: SK-MEL-28
NCI-H460 = tested on: NCI-H460
UO-31 = tested on: UO-31
LOX IMVI = tested on: LOX IMVI
Hs-578T = tested on: Hs-578T
U-251 = tested on: U-251
HCT-15 = tested on: HCT-15
RXF 393 = tested on: RXF 393
TK-10 = tested on: TK-10
786-0 = tested on: 786-0
SW-620 = tested on: SW-620
IGROV-1 = tested on: IGROV-1
HL-60 = tested on: HL-60
M14 = tested on: M14
A549 = tested on: A549
HOP-92 = tested on: HOP-92
SK-MEL-5 = tested on: SK-MEL-5
HCC 2998 = tested on: HCC 2998
CCRF-CEM = tested on: CCRF-CEM
HT-29 = tested on: HT-29
MOLT-4 = tested on: MOLT-4
DU-145 = tested on: DU-145
OVCAR-4 = tested on: OVCAR-4
ACHN = tested on: ACHN
NCI/ADR-RES = tested on: NCI/ADR-RES
UACC-257 = tested on: UACC-257
PC-3 = tested on: PC-3
MDA-MB-231 = tested on: MDA-MB-231
UACC-62 = tested on: UACC-62
SK-MEL-2 = tested on: SK-MEL-2
OVCAR-5 = tested on: OVCAR-5
HOP-62 = tested on: HOP-62
SF-268 = tested on: SF-268
OVCAR-3 = tested on: OVCAR-3
MDA-MB-435 = tested on: MDA-MB-435
NCI-H522 = tested on: NCI-H522
EKVX = tested on: EKVX
K562 = tested on: K562
SF-295 = tested on: SF-295
A498 = tested on: A498
SNB-75 = tested on: SNB-75
NCI-H226 = tested on: NCI-H226
T47D = tested on: T47D
MCF7 = tested on: MCF7
KM12 = tested on: KM12
OVCAR-8 = tested on: OVCAR-8
SNB-19 = tested on: SNB-19
RPMI-8226 = tested on: RPMI-8226
COLO 205 = tested on: COLO 205
SK-OV-3 = tested on: SK-OV-3
HCT-116 = tested on: HCT-116
SR = tested on: SR
NCI-H23 = tested on: NCI-H23
Malme-3M = tested on: Malme-3M
BT-549 = tested on: BT-549
CAKI-1 = tested on: CAKI-1
SF-539 = tested on: SF-539

SMILES: COc1ccc(N2C(=O)C3c4[nH]c5ccc(C)cc5c4C4CCC(c5ccccc5)CC4C3C2=O)cc1 (centres undefined)
- GI50 (SN12C): > 100 µM (inactive)
- GI50 (SK-MEL-28): > 100 µM (inactive)
- GI50 (NCI-H460): 39 µM (inactive)
- GI50 (UO-31): > 89.5 µM (inactive)
- GI50 (LOX IMVI): > 57.3 µM (inactive)
- GI50 (Hs-578T): 6.84 µM (inactive)
- GI50 (U-251): 12.9 µM (inactive)
- GI50 (HCT-15): > 75.9 µM
- GI50 (RXF 393): 12.6 µM (inactive)
- GI50 (TK-10): 28.6 µM (inactive)
- GI50 (786-0): 9.64 µM (inactive)
- GI50 (SW-620): > 100 µM (inactive)
- GI50 (IGROV-1): > 51.3 µM (inactive)
- GI50 (HL-60): 12.8 µM (inactive)
- GI50 (M14): 47.1 µM (inactive)
- GI50 (A549): > 89.1 µM (inactive)
- GI50 (HOP-92): 14.6 µM (inactive)
- GI50 (SK-MEL-5): > 100 µM (inactive)
- GI50 (HCC 2998): > 100 µM (inactive)
- GI50 (CCRF-CEM): 4.9 µM (inactive)
- GI50 (HT-29): > 100 µM (inactive)
- GI50 (MOLT-4): 41.2 µM (inactive)
- GI50 (DU-145): > 100 µM (inactive)
- GI50 (OVCAR-4): > 32.5 µM (inactive)
- GI50 (ACHN): 32.6 µM (inactive)
- GI50 (NCI/ADR-RES): > 100 µM (inactive)
- GI50 (UACC-257): > 100 µM (inactive)
- GI50 (PC-3): > 100 µM (inactive)
- GI50 (MDA-MB-231): 8.41 µM (inactive)
- GI50 (UACC-62): 22.6 µM (inactive)
- GI50 (SK-MEL-2): 28.5 µM (inactive)
- GI50 (OVCAR-5): > 100 µM (inactive)
- GI50 (HOP-62): 7.05 µM (inactive)
- GI50 (SF-268): 11.8 µM (inactive)
- GI50 (OVCAR-3): > 100 µM (inactive)
- GI50 (MDA-MB-435): > 100 µM (inactive)
- GI50 (NCI-H522): > 100 µM (inactive)
- GI50 (EKVX): > 64.3 µM (inactive)
- GI50 (K562): 25.8 µM (inactive)
- GI50 (SF-295): 20.6 µM (inactive)
- GI50 (A498): 22.9 µM (inactive)
- GI50 (SNB-75): 4.02 µM (inactive)
- GI50 (NCI-H226): > 100 µM (inactive)
- GI50 (T47D): > 100 µM (inactive)
- GI50 (MCF7): > 83.6 µM (inactive)
- GI50 (KM12): > 100 µM (inactive)
- GI50 (OVCAR-8): 22.5 µM (inactive)
- GI50 (SNB-19): 14.3 µM (inactive)
- GI50 (RPMI-8226): > 82.8 µM (inactive)
- GI50 (COLO 205): > 100 µM (inactive)
- GI50 (SK-OV-3): 18.9 µM (inactive)
- GI50 (HCT-116): > 57.7 µM (inactive)
- GI50 (SR): 5.41 µM (inactive)
- GI50 (NCI-H23): 33.7 µM (inactive)
- GI50 (Malme-3M): > 100 µM (inactive)
- GI50 (BT-549): 42.3 µM (inactive)
- GI50 (CAKI-1): > 33.1 µM (inactive)

SMILES: Cc1oncc1/N=C1\C=C(O)C(=O)c2ccccc21
- GI50 (SN12C): 5.73 µM (inactive)
- GI50 (SK-MEL-28): 15.4 µM (inactive)
- GI50 (NCI-H460): 3.91 µM (inactive)
- GI50 (UO-31): 14.1 µM (inactive)
- GI50 (LOX IMVI): 2.73 µM (inactive)
- GI50 (Hs-578T): 9.12 µM (inactive)
- GI50 (U-251): 5.37 µM (inactive)
- GI50 (HCT-15): 3.72 µM
- GI50 (RXF 393): 13.2 µM (inactive)
- GI50 (TK-10): 25.1 µM (inactive)
- GI50 (786-0): 18.2 µM (inactive)
- GI50 (SW-620): 4.4 µM (inactive)
- GI50 (IGROV-1): 3.57 µM (inactive)
- GI50 (HL-60): 2.26 µM (inactive)
- GI50 (M14): 6.1 µM (inactive)
- GI50 (A549): 3.9 µM (inactive)
- GI50 (HOP-92): 10.4 µM (inactive)
- GI50 (SK-MEL-5): 1.95 µM (inactive)
- GI50 (HCC 2998): 16.8 µM (inactive)
- GI50 (CCRF-CEM): 3.38 µM (inactive)
- GI50 (HT-29): 3.65 µM (inactive)
- GI50 (MOLT-4): 2.5 µM (inactive)
- GI50 (DU-145): 15 µM (inactive)
- GI50 (OVCAR-4): 3.62 µM (inactive)
- GI50 (ACHN): 4.82 µM (inactive)
- GI50 (NCI/ADR-RES): 3.85 µM (inactive)
- GI50 (UACC-257): 2.77 µM (inactive)
- GI50 (PC-3): 2.42 µM (inactive)
- GI50 (SF-539): 4.65 µM (inactive)
- GI50 (MDA-MB-231): 8.47 µM (inactive)
- GI50 (UACC-62): 2.99 µM (inactive)
- GI50 (OVCAR-5): 13.5 µM (inactive)
- GI50 (HOP-62): 17.4 µM (inactive)
- GI50 (SF-268): 10.5 µM (inactive)
- GI50 (OVCAR-3): 1.9 µM (inactive)
- GI50 (MDA-MB-435): 1.92 µM (inactive)
- GI50 (NCI-H522): 5.41 µM (inactive)
- GI50 (EKVX): 14.6 µM (inactive)
- GI50 (K562): 6.14 µM (inactive)
- GI50 (SF-295): 7.66 µM (inactive)
- GI50 (A498): 13.2 µM (inactive)
- GI50 (SNB-75): 13.1 µM (inactive)
- GI50 (NCI-H226): 19 µM (inactive)
- GI50 (T47D): 3.3 µM (inactive)
- GI50 (MCF7): 2.68 µM (inactive)
- GI50 (KM12): 6.21 µM (inactive)
- GI50 (OVCAR-8): 2.53 µM (inactive)
- GI50 (SNB-19): 16.3 µM (inactive)
- GI50 (RPMI-8226): 7.64 µM (inactive)
- GI50 (COLO 205): 17 µM (inactive)
- GI50 (SK-OV-3): 15.7 µM (inactive)
- GI50 (HCT-116): 3.16 µM (inactive)
- GI50 (SR): 4.88 µM (inactive)
- GI50 (NCI-H23): 3.79 µM (inactive)
- GI50 (Malme-3M): 3.45 µM (inactive)
- GI50 (BT-549): 12.4 µM (inactive)
- GI50 (CAKI-1): 9.18 µM (inactive)
